ChEMBL document CHEMBL1201862, “PubChem BioAssay data set” (2004)
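Where inhibition never reached the appropriate level, the endpoint shown equals the highest concentration tested. Otherwise, values were interpolated linearly from a five-concentration, 48-hour dose response in 96-well plates. GI50 = concentration required for 50% inhibition of growth.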 The source made the active and inactive calls. Rule as the data show it: active = GI50 up to about 1.1 µM and inactive = higher.

Assays:
Assay in all cases: growth of human tumour cells (NCI), 48 h
T47D = test system: T47D
RXF 393 = test system: RXF 393
ACHN = test system: ACHN
SK-MEL-2 = test system: SK-MEL-2
SF-539 = test system: SF-539
LOX IMVI = test system: LOX IMVI
U-251 = test system: U-251
DU-145 = test system: DU-145
HOP-92 = test system: HOP-92
CCRF-CEM = test system: CCRF-CEM
A549 = test system: A549
MCF7 = test system: MCF7
HOP-62 = test system: HOP-62
OVCAR-4 = test system: OVCAR-4
TK-10 = test system: TK-10
Hs-578T = test system: Hs-578T
PC-3 = test system: PC-3
UO-31 = test system: UO-31
A498 = test system: A498

Measured: GI50

Nc1c2ccccc2nc2ccc(C(=O)Nc3ccc(S(N)(=O)=O)cc3)cc12
inactive: T47D > 100 µM | RXF 393 > 100 µM | ACHN > 100 µM | SK-MEL-2 > 100 µM | SF-539 > 100 µM | LOX IMVI > 100 µM | U-251 > 100 µM | DU-145 > 100 µM | HOP-92 > 100 µM | CCRF-CEM > 100 µM | A549 > 100 µM | MCF7 > 100 µM | HOP-62 > 100 µM | OVCAR-4 > 100 µM | TK-10 > 100 µM | Hs-578T > 100 µM | PC-3 > 100 µM | UO-31 > 100 µM

NCCSCc1ccccc1Cl
inactive: T47D 42.4 µM | RXF 393 83.8 µM | ACHN > 100 µM | SK-MEL-2 30.6 µM | LOX IMVI 25.7 µM | U-251 31.6 µM | DU-145 43 µM | A498 27 µM | HOP-92 68.2 µM | CCRF-CEM 25.2 µM | A549 > 100 µM | HOP-62 40.6 µM | OVCAR-4 64.9 µM | TK-10 26.4 µM | Hs-578T 73.5 µM | PC-3 30.3 µM | UO-31 > 100 µM

COc1ccc2c(c1)C(=O)C1(C2)[C@H](c2ccccc2)C2C(=O)c3cc(OC)ccc3C2[C@H]1c1ccccc1 (some centres undefined)
inactive: T47D > 100 µM | RXF 393 > 100 µM | ACHN > 100 µM | SF-539 > 100 µM | LOX IMVI > 100 µM | U-251 > 100 µM | DU-145 > 100 µM | A498 > 100 µM | HOP-92 > 100 µM | CCRF-CEM 73.5 µM | A549 > 100 µM | HOP-62 > 100 µM | OVCAR-4 > 100 µM | TK-10 > 100 µM | Hs-578T 74.6 µM | PC-3 16.6 µM | UO-31 > 100 µM

CN(CCN1C(=O)c2cccc3cccc(c23)C1=O)CCN1C(=O)c2cccc3cccc(c23)C1=O
inactive: T47D 1.5 µM | RXF 393 23.3 µM | ACHN 7.69 µM | SK-MEL-2 45.7 µM | SF-539 32.7 µM | LOX IMVI 58.6 µM | U-251 12.2 µM | DU-145 > 100 µM | CCRF-CEM 2.18 µM | A549 27.6 µM | MCF7 84.3 µM | HOP-62 12.5 µM | OVCAR-4 > 100 µM | TK-10 14.1 µM | Hs-578T 12 µM | PC-3 > 100 µM | UO-31 5.81 µM

COC(=O)C1C2CCCN2OC1(C)CO (centres undefined)
inactive: T47D > 100 µM | ACHN > 100 µM | SK-MEL-2 > 100 µM | SF-539 > 100 µM | LOX IMVI > 100 µM | U-251 > 100 µM | DU-145 > 100 µM | A498 > 100 µM | CCRF-CEM > 100 µM | A549 > 100 µM | MCF7 > 100 µM | HOP-62 > 100 µM | OVCAR-4 > 100 µM | TK-10 > 100 µM | Hs-578T > 100 µM | PC-3 > 100 µM | UO-31 > 100 µM

Cc1ccccc1N(C)S(=O)(=O)c1ccccc1[N+](=O)[O-]
inactive: T47D 58.1 µM | RXF 393 21.3 µM | ACHN 81.8 µM | SK-MEL-2 47.5 µM | SF-539 36.5 µM | LOX IMVI 55.3 µM | U-251 36.3 µM | DU-145 > 100 µM | CCRF-CEM 35.8 µM | A549 45.9 µM | MCF7 42.5 µM | HOP-62 48.2 µM | OVCAR-4 67.6 µM | TK-10 > 100 µM | Hs-578T 66.1 µM | PC-3 38.9 µM | UO-31 34.3 µM

O=C(O)CCC1(CCC(=O)O)CCCCCCCCC(CCC(=O)O)(CCC(=O)O)C(=O)C1=O
inactive: T47D > 100 µM | ACHN > 100 µM | SK-MEL-2 > 100 µM | SF-539 > 100 µM | LOX IMVI > 100 µM | U-251 > 100 µM | DU-145 > 100 µM | HOP-92 > 100 µM | A549 > 100 µM | MCF7 > 100 µM | HOP-62 > 100 µM | OVCAR-4 > 100 µM | TK-10 > 100 µM | Hs-578T > 100 µM | PC-3 > 100 µM

C[N+]1([O-])CCC(O)(C2CC2)CC1 (centres undefined)
inactive: T47D > 100 µM | RXF 393 > 100 µM | ACHN > 100 µM | SK-MEL-2 > 100 µM | LOX IMVI > 100 µM | U-251 > 100 µM | DU-145 > 100 µM | CCRF-CEM > 100 µM | A549 > 100 µM | MCF7 > 100 µM | HOP-62 > 100 µM | OVCAR-4 > 100 µM | TK-10 > 100 µM | Hs-578T > 100 µM | PC-3 > 100 µM | UO-31 > 100 µM
